Key:
[1] = HICS-FTMS of plasma from rats treated by oral gavage; type: in vivo; settings: rat plasma, 100 mg/kg daily by oral gavage for one week, versus untreated rats
Procedure: Three rats were treated daily with 100 mg/kg of 6-(6-hydroxy-5,5-dimethylhexyloxy)-2,2-dimethyl-hexan-1-ol by oral gavage, over the course of one week. 6-(6-hydroxy-5,5-dimethylhexyloxy)-2,2-dimethyl-hexon-1-ol increases HDL-cholesterol and improves glucose utilization in experimental rats (see U.S. application Ser. No. 09/540,738 , filed Mar. 31, 2000). At the end of the week, blood was drawn from each of the three rats, as well as from three control (untreated) rats. The blood was allowed to coagulate, and the plasma was prepared for FTMS by adding a water and methanol solution (49:49:2, water:methanol:acetic acid v:v:v) each of the plasma preparations. The mixture was chilled to precipitate the proteins to the bottom of the tube. Each tube was centrifuged, the supernatant decanted and the sample desalted by adding approximately 100 mg of DOWEX ion exchange resin to each vial and incubating the sample with the resin for approximately 10 minutes. The sample was then centrifuged and the supernatant removed. This solution was then introduced to the FT mass spectrometer.

[2] = experimental rats; see U.S. application Ser. No. 09/540,738; cited from earlier work
[3] = system: primary rat hepatocyte cells; assay: FTMS of extracts of primary rat hepatocytes treated with lovastatin; type: cell-based; settings: lovastatin 0.03 to 30 μM for 4 hours, normalized against untreated
Procedure: A male Sprague-Dawley rat was anesthetized by administration of sodium pentobarbitol by at 50 mg/kg body mass be intraperitoneal injection. In situ perfusion of the liver was performed as follows. The abdomen of the animal was opened, the portal vein was cannulated, and the liver perfused with WOSH solution (149 mM NaCl, 9.2 mM Na HEPES, 1.7 mM fructose, 0.5 mM EGTA, 10 U/ml heparin, pH 7.5) at a flow rate of 30 ml/min for 6 minutes. To digest the liver, DSC solution (6.7 mM KCl, 143 mM NaCl, 9.2 mM Na HEPES, 5 mM CaCl2-2H2O, 1.7 mM fructose, 0.2% BSA, 100 U/ml collagenase Type I, 80 U/ml, 160 BAEE/ml trypsin inhibitor, pH 7.5) was perfused through the liver at a flow rate of 30 ml/min for 6 minutes at a temperature of 37° C. After digestion, cells were dispersed in a solution of DMEM- (DMEM containing 2mM GlutMax-1, 0.2% BSA, 5% FBS, 12 nM insulin, 1.2 μM hydrocortisone) to stop the digestion process. The crude cell suspension was filtered through three layers of stainless steel mesh with pore sizes of 250, 106, and 75 um respectively. Filtered cells were centrifuged at 50×g for two minutes and the supernatant discarded. […]
All measurements were carried out on a Bruker APEX II FTMS equipped with a 7.0 Tesla magnet. […] The accurate mass data was then analyzed using Tcl/Tk routines, which serially search the mass spectra from each well for chemical composition of metabolic products. […]

Row | SMILES | intensity of FTMS peak of molecular mass approximately 766.4 Daltons [1] | intensity of FTMS peak of molecular mass approximately 766.8 Daltons [1] | HDL-cholesterol [2] | glucose utilization [2] | relative intensity of FTMS peak at molecular mass 85.02815 [3] | relative intensity of FTMS peak at molecular mass 85.64405 [3]
1 | CC(C)(CO)CCCCOCCCCC(C)(C)CO [6-(6-hydroxy-5,5-dimethylhexyloxy)-2,2-dimethyl-hexan-1-ol] | reproducibly higher intensities | reproducibly higher intensities | increases | improves | – | –
2 | CC[C@H](C)C(=O)O[C@H]1C[C@@H](C)C=C2C=C[C@H](C)[C@H](CC[C@@H]3C[C@@H](O)CC(=O)O3)[C@H]21 [lovastatin] | – | – | – | – | decreasing trend | increasing trend
